Test results published in patent EP0250755A2, “Fluorine derivatives of vitamin D3 and process for producing the same” (SUMITOMO PHARMACEUTICALS COMPANY, LIMITED, priority 1986, dated 1988).

Key:
vitamin D-deficient rats [1] = assay: Bone calcium mobilization response (serum calcium, OCPC method) in vitamin D-deficient rats; format: in vivo; conditions: intrajugular, 24 hours after administration, Mean ± SD (N = 4 ~ 6)
Method: Blood was collected after 24 hours, and the concentration of calcium in serum was determined by the OCPC (orthocresolphthalein complexon) method.

[2] = tested on: human premyeloblast leukemia cells (HL-60); assay: Proliferation-suppression rate of HL-60 cells (Coulter counter, 4 days cultivation); format: cell-based; conditions: 96 h, HL-60, 4 days; for inhibition at 0.1 ng/mL: Concn. 0.1 ng/mL; for inhibition at 1 ng/mL: Concn. 1 ng/mL; for inhibition at 10 ng/mL: Concn. 10 ng/mL
Method: An HL-60 cell fluid adjusted to a concentration of 5 x 10^4 cells/ml was incorporated with each of the agents to be tested and cultivated in a carbon dioxide incubator at 37°C for 4 days. After the cultivation, the number of cells was measured by means of a Coulter counter. The percentage of the number thus measured relative to the number of cells in an untreated group was calculated, from which the proliferation-suppression rate was obtained.

[3] = tested on: human premyeloblast leukemia cells (HL-60); assay: NBT reduction (differentiation of HL-60 cells into macrophages); format: cell-based; conditions: HL-60, 4 days, control 0.5
Method: Thereafter, the cells were smeared onto a slide glass, subjected to Giemsa staining, and the coloration of the cells was examined under a microscope. The number of cells containing intracellular blue-black formazan deposits was measured for 200 cells, and the results were expressed in terms of the percentage of NBT reduction-positive cells.

vitamin D-deficient rats [4] = assay: Intestinal calcium transport response (method of Martin and DeLuca) in vitamin D-deficient rats; format: in vivo; conditions: intrajugular, 24 hours after administration, Mean ± SD (N = 4 ~ 6)
[5] = dose 50 pmol/100 g body wt., control 4.8 ± 0.29
[6] = dose 50 pmol/100 g body wt., control 2.6 ± 0.27
[7] = dose 650 pmol/100 g body wt., control 4.8 ± 0.31
[8] = dose 650 pmol/100 g body wt., control 2.5 ± 0.30

Compound	Serum calcium (vitamin D-deficient rats [1]; [5]) [mg/100 ml]	inhibition at 0.1 ng/mL [2] [%]	inhibition at 1 ng/mL [2] [%]	inhibition at 10 ng/mL [2] [%]	NBT reduction rate ([3]; Concn. 0.1 µg/ml) [%]	NBT reduction rate ([3]; Concn. 1 µg/ml) [%]	NBT reduction rate ([3]; Concn. 10 µg/ml) [%]	Intestinal calcium transport (Ca [S/M]) (vitamin D-deficient rats [4]; [6])	Serum calcium (vitamin D-deficient rats [1]; [7]) [mg/100 ml]	Intestinal calcium transport (Ca [S/M]) (vitamin D-deficient rats [4]; [8])
C=C1/C(=C\C=C2/CCC[C@]3(C)[C@@H]([C@H](C)CCC(=O)C(O)(C(F)(F)F)C(F)(F)F)CC[C@@H]23)C[C@@H](O)C[C@@H]1O [Compound 10, la,25-dihydroxy-26,26,26,27,27,27-hexafluoro-24-oxovitamin D3]	6.5 ± 0.40	45.9	78.6	89.9	12.5	46.0	82.5	6.5 ± 1.92 Ca [S/M]		
C=C1/C(=C\C=C2/CCC[C@]3(C)[C@@H]([C@H](C)C[C@H](O)CC(O)(C(F)(F)F)C(F)(F)F)CC[C@@H]23)C[C@@H](O)C[C@@H]1O [Compound 28b, 23(S)-26,26,26,27,27,27-hexa-fluoro-1α,23,25-trihydroxyvitamin D3]		22.8	67.3	86.9	2.0	60.0	81.0		5.6 ± 0.60	5.7 ± 1.92 Ca [S/M]
C=C1/C(=C\C=C2/CCC[C@]3(C)[C@@H]([C@H](C)CC[C@@H](O)C(O)(C(F)(F)F)C(F)(F)F)CC[C@@H]23)C[C@@H](O)C[C@@H]1O [Compound 6b, 24(R)-26,26,26,27,27,27-hexafluoro-1α,24,25-trihydroxyvitamin-D3]	6.3 ± 0.55	50.2	84.7	90.4	32.0	79.5	83.5	8.9 ± 2.81 Ca [S/M]		
C=C1/C(=C\C=C2/CCC[C@]3(C)[C@@H]([C@H](C)CCCC(C)(C)O)CC[C@@H]23)C[C@@H](O)C[C@@H]1O [1α,25-(OH)2D3, 1α,25-Dihydroxyvitamin D3, reference compound]	5.5 ± 0.30	6.2	36.1	72.4	1.0	16.5	56.5	3.4 ± 0.72 Ca [S/M]	8.5 ± 0.59	3.6 ± 0.52 Ca [S/M]
C=C1/C(=C\C=C2/CCC[C@]3(C)[C@@H]([C@H](C)CC[C@H](O)C(O)(C(F)(F)F)C(F)(F)F)CC[C@@H]23)C[C@@H](O)C[C@@H]1O [Compound 6a, 24(S)-26,26,26,27,27,27-hexa-fluoro-la,24,25-trihydroxyvitamin D3]		30.7	74.9	83.7	8.0	55.0	86.0			
C=C1/C(=C\C=C2/CCC[C@]3(C)[C@@H]([C@H](C)C[C@@H](O)CC(O)(C(F)(F)F)C(F)(F)F)CC[C@@H]23)C[C@@H](O)C[C@@H]1O [Compound 28a, 23(R)-26,26,26,27,27,27-hexa-fluoro-1α,23,25-trihydroxyvitamin D3]		19.8	76.4	92.2	6.5	60.5	80.0		7.2 ± 0.67	6.3 ± 1.88 Ca [S/M]
